Laboratory results published in the Biogen ADME set (Fang et al. 2023).
Values after ≈ are worked out from the molar mass of the structure shown.

Details: for aqueous solubility: pH 6.8

Compound | MDR1-MDCK efflux ratio | intrinsic clearance, human liver microsomes | intrinsic clearance, rat liver microsomes | aqueous solubility | fraction unbound, human plasma | fraction unbound, rat plasma
Cc1nn(CCNS(=O)(=O)N2CCCCC2)c(C)c1C | 1.53 | 163 mL/min/kg | 3200 mL/min/kg | – | – | –
Cc1nn(C)cc1CNc1nc(-c2cnccn2)nc2sc3c(c12)CCCC3 | 1.92 | 273 mL/min/kg | 2410 mL/min/kg | 50.6 µg/mL (≈ 129 µM) | – | –
CCC(C)(C)c1ccc(Oc2ccc(NC(=O)Nc3ccccc3OC)cc2)cc1 | – | – | – | 0.43 µg/mL (≈ 1.06 µM) | – | –
CC(C)COc1ccc(C(C)(C)NCc2nnc(C3CCC3)o2)cc1 | – | 127 mL/min/kg | 3070 mL/min/kg | – | – | –
O=C(O)Cc1ccc(Oc2ccncc2)cc1 | 1.2 | ≤ 4.74 mL/min/kg | ≤ 10.7 mL/min/kg | – | – | –
O=C(N[C@@H](COc1ccc2[nH]c(=O)[nH]c2c1)c1ccccc1)c1cccn(Cc2ccc(F)c(F)c2)c1=O | – | 53.2 mL/min/kg | 383 mL/min/kg | – | – | –
Cc1cc(C(=O)NCC2CC2)n2nccc2n1 | 0.576 | 25.7 mL/min/kg | 74.9 mL/min/kg | 50.4 µg/mL (≈ 219 µM) | – | –
COc1cccc(O[C@H]2CCN(C(=O)c3cc(-c4ccc(F)cc4)on3)CC[C@@H]2O)c1 | 0.882 | 66.3 mL/min/kg | 577 mL/min/kg | – | – | –
O=c1[nH]c(=O)n([C@H]2C[C@H](O)[C@@H](CO)O2)cc1C(F)(F)F | – | 41.9 mL/min/kg | ≤ 10.7 mL/min/kg | – | – | –
CC(C)(O)CCn1cc2cc(NC(=O)c3cccc(C(F)(F)F)n3)c(C(C)(C)O)cc2n1 | 10.2 | 9.92 mL/min/kg | 42.6 mL/min/kg | – | 0.104 | 0.124
CN(C(=O)CNC(=O)c1ccccc1OCC(=O)Nc1ccc(Br)cc1)c1ccccc1 | 3.43 | – | – | 0.35 µg/mL (≈ 0.705 µM) | – | –
O=C(CN1CCSC1=O)Nc1ccccc1F | 0.739 | ≤ 4.74 mL/min/kg | ≤ 10.7 mL/min/kg | 31.6 µg/mL (≈ 124 µM) | – | –
Cc1ccc(C(=O)COC(=O)c2cc(O)nc3ccccc23)cc1 | 0.502 | – | – | 0.69 µg/mL (≈ 2.15 µM) | – | –
CCc1nnsc1C(=O)Nc1cccc(-c2nnc3n2CCCCC3)c1 | 47.2 | 15 mL/min/kg | 142 mL/min/kg | 32.2 µg/mL (≈ 87.5 µM) | – | –
Cc1cccc(NC(=O)N2CCC(N3CC=CC3)CC2)c1Cl | 0.517 | 9.11 mL/min/kg | 1040 mL/min/kg | – | – | –
N#Cc1c(O)c(Cl)c(Cl)c(C#N)c1Cl | – | – | – | 31.3 µg/mL (≈ 126 µM) | – | –
O=C(CSC1CCCC1)N1CCC(n2ccnn2)CC1 | 1.3 | 13.2 mL/min/kg | 138 mL/min/kg | 39.1 µg/mL (≈ 133 µM) | – | –

Compound | MDR1-MDCK efflux ratio | intrinsic clearance, human liver microsomes | intrinsic clearance, rat liver microsomes | aqueous solubility | fraction unbound, human plasma | fraction unbound, rat plasma
CN1CCC(O)(CNS(=O)(=O)CC2CCCCC2)CC1 | 2.92 | ≤ 4.74 mL/min/kg | 387 mL/min/kg | – | – | –
CCN(CC)CCCNc1ncc(-c2cc(C)no2)c(-c2ccco2)n1 | 17.5 | 5.13 mL/min/kg | 312 mL/min/kg | 69.8 µg/mL (≈ 196 µM) | – | –
O=C(Cc1cccc(I)c1)N1CC(CO)C1 | 1.59 | ≤ 4.74 mL/min/kg | ≤ 10.7 mL/min/kg | 42.1 µg/mL (≈ 127 µM) | – | –
CCOC(=O)N1CCc2cc(NC(=O)c3oc(C)cc3C)ccc21 | – | 11.5 mL/min/kg | 118 mL/min/kg | – | – | –
CN(Cc1ccc(Br)o1)C(=O)CN1CCCC1=O | 2.67 | ≤ 4.74 mL/min/kg | 16.7 mL/min/kg | 70 µg/mL (≈ 222 µM) | – | –
CC(=O)N1CCCN(Cc2c(C)nn(C)c2Cl)CC1 | 3.19 | 11.6 mL/min/kg | 43.7 mL/min/kg | 41.1 µg/mL (≈ 144 µM) | – | –
Cc1cc(C)nc(SCC(=O)N2c3ccccc3C(C)(c3ccc(Cl)cc3)CC2(C)C)n1 (stereo not given) | – | 1040 mL/min/kg | 2110 mL/min/kg | – | – | –
CC(C)(C)c1cc(NC(=O)c2cccc3cn[nH]c23)[nH]n1 | 1.55 | 9.85 mL/min/kg | 176 mL/min/kg | 1.78 µg/mL (≈ 6.28 µM) | – | –
CNC(=O)c1ccc(N(C)C2CCC2)nn1 | 0.586 | 24.8 mL/min/kg | 40.3 mL/min/kg | 47.3 µg/mL (≈ 215 µM) | – | –
Cc1nc(N(C)C)nc(C)c1NC(=O)C1CCCCC1 | 0.656 | 6.25 mL/min/kg | 75.4 mL/min/kg | 49.3 µg/mL (≈ 179 µM) | – | –
CC1(C)CC(=O)c2c(C(F)(F)F)nn(-c3ccc(C(N)=O)c(N[C@H]4CC[C@@H](O)CC4)c3)c2C1 | 109 | 47.7 mL/min/kg | 108 mL/min/kg | – | – | –
Cc1noc(C)c1CS(=O)(=O)Cc1cccc2c1OCCO2 | 2.46 | 39.8 mL/min/kg | 2290 mL/min/kg | 53.3 µg/mL (≈ 165 µM) | – | –
Cc1cc(NC(=O)CCc2c(C)nn(C)c2C)no1 | 3.86 | ≤ 4.74 mL/min/kg | 45 mL/min/kg | 50.7 µg/mL (≈ 193 µM) | – | –
CC(C)CCN1CCc2nc3cc(C4CC4)nn3c(O)c2C1 | 9.05 | 7.62 mL/min/kg | 30.3 mL/min/kg | – | – | –
CCCc1nnc(N2CCC3(CCCC3)C2)s1 | 0.525 | 86.7 mL/min/kg | 2160 mL/min/kg | – | – | –
CS(=O)(=O)CCNc1ccc2ccc(F)cc2n1 | 0.652 | 15.6 mL/min/kg | 76.4 mL/min/kg | 53.5 µg/mL (≈ 199 µM) | – | –
CC(=O)N1CCC(c2ccc(C(=O)O)cn2)CC1 | – | ≤ 4.74 mL/min/kg | ≤ 10.7 mL/min/kg | 50.6 µg/mL (≈ 204 µM) | – | –

The next lines start with the values.

MDR1-MDCK efflux ratio | intrinsic clearance, human liver microsomes | intrinsic clearance, rat liver microsomes | aqueous solubility | fraction unbound, human plasma | fraction unbound, rat plasma | Compound
0.596 | ≤ 4.74 mL/min/kg | 16.5 mL/min/kg | – | – | – | Cc1ccnc(NCc2cccnc2)n1
– | 32.1 mL/min/kg | – | – | – | – | Cc1cccc(/C=N/Nc2cc(N3CCOCC3)n3nc(-c4ccncc4)cc3n2)c1
– | – | – | 1.92 µg/mL (≈ 5.43 µM) | – | – | Cn1cc(-c2nc(C(=O)Nc3cccnc3-n3cncn3)cs2)cn1
0.856 | 133 mL/min/kg | 2050 mL/min/kg | – | – | – | CC1=C(Br)CN(CCc2nc3ccccc3c(=O)[nH]2)CC1
– | – | – | 0.31 µg/mL (≈ 1.06 µM) | – | – | O=C1NC(c2ccccc2)=N/C1=C/c1ccc2c(c1)OCO2
3.78 | 25.8 mL/min/kg | 70.7 mL/min/kg | 54.1 µg/mL (≈ 168 µM) | – | – | CCNC(=O)c1cc(C2CC2)nc2c1c(C)nn2-c1ccccn1
7.45 | 29.1 mL/min/kg | 1180 mL/min/kg | – | – | – | Cc1nc2n(c1CN1CCN(c3ncccn3)CC1)CCCC2
– | 31.2 mL/min/kg | 729 mL/min/kg | – | – | – | Cc1cccc2cnc(C3CCN(C(=O)CCc4ccno4)CC3)cc12
50.4 | 36.5 mL/min/kg | 518 mL/min/kg | 51.9 µg/mL (≈ 158 µM) | – | – | Cc1ncsc1CN1CCCN(c2nc3ccccc3[nH]2)CC1
0.761 | 270 mL/min/kg | 1280 mL/min/kg | – | – | – | O=C1CC(N2CCCN(c3ccc(C(F)(F)F)cn3)CC2)C(=O)N1c1ccccc1 (stereo not given)
0.848 | 28.6 mL/min/kg | 95.3 mL/min/kg | – | – | – | CCc1cc(-c2ccc(OC)c3ncccc23)nc(N2CCOCC2)n1
0.802 | 206 mL/min/kg | 2510 mL/min/kg | 41 µg/mL (≈ 134 µM) | – | – | c1ccc(CCn2cnc3c2CCN(c2ncccn2)C3)cc1
63.4 | 32.7 mL/min/kg | 67.9 mL/min/kg | – | – | – | C=CCn1c(=O)c2cnc(Nc3ccc(N4CCN(C)CC4)cc3)nc2n1-c1cccc(C(C)(C)O)n1
17.3 | 395 mL/min/kg | 2390 mL/min/kg | 84.1 µg/mL (≈ 200 µM) | 0.0799 | 0.184 | CN(C)C(=O)C1(Cc2ccccc2-c2ccccc2)CCN(C(=O)C2CCCO2)CC1 (stereo not given)
0.624 | 10.3 mL/min/kg | 2910 mL/min/kg | 53.3 µg/mL (≈ 170 µM) | – | – | O=C(c1noc2c1CCCC2)N1CCN(c2ncccn2)CC1
– | – | – | 3.71 µg/mL (≈ 12.6 µM) | – | – | COCc1cccc(NC(=O)c2cn(C)c3ccccc23)c1
10.9 | 25 mL/min/kg | 594 mL/min/kg | 65.1 µg/mL (≈ 161 µM) | – | – | COc1ccc(Nc2nc(N)nc(CN3CCN(Cc4ccccc4)CC3)n2)cc1
1.25 | 51 mL/min/kg | 855 mL/min/kg | 55.4 µg/mL (≈ 185 µM) | – | – | CCc1noc(CN2CCCN(C(C)=O)c3ccccc32)n1
0.871 | 88.4 mL/min/kg | 1840 mL/min/kg | – | 0.0178 | – | CCC(=O)N1CCN(c2ccc(Cl)cc2NC(=O)COc2ccccc2)CC1
0.559 | 64.3 mL/min/kg | 936 mL/min/kg | – | – | – | Cc1ccc(C(=O)C2CCN(CC(=O)NC(=O)Nc3ccccc3)CC2)c(C)c1
0.891 | 311 mL/min/kg | 2060 mL/min/kg | 67.7 µg/mL (≈ 195 µM) | – | – | CCc1ccc(S(=O)(=O)NCc2ccnc(N3CCCC3)n2)cc1
– | 31.9 mL/min/kg | 1090 mL/min/kg | 50.4 µg/mL (≈ 162 µM) | 0.173 | 0.156 | Cn1c(C2CC2)nc2c1CCN(c1ncnc3ccsc13)C2
– | 110 mL/min/kg | 1040 mL/min/kg | – | – | – | O=C(Nc1ccccc1)c1scnc1-c1ccccc1
21.8 | – | – | 0.91 µg/mL (≈ 2.19 µM) | – | – | Cc1ccccc1Cn1c(=O)c2c(nc3n(-c4ccccc4O)c(C)cn23)n(C)c1=O
0.608 | 444 mL/min/kg | 2220 mL/min/kg | – | – | – | COCc1ccccc1COC(=O)c1ccc(C)nc1
